# Experimental data taken from patent US10590086B2, “Pharmaceutical compound” (IOmet Pharma Ltd., priority 2014, dated 2020).
# What was measured:
# [1] = molecular target: T1, TDO (Homo sapiens, UniProt P48775); experiment: hTDO biochemical coupled assay; details: 330 μM L-tryptophan, 17 minutes, room temperature; read-out: hTDO biochemical assay pIC50 (converted)
# [2] = molecular target: T2, IDO (Homo sapiens, UniProt P14902); experiment: hIDO biochemical coupled assay; details: 45 μM L-tryptophan, 17 minutes, room temperature; read-out: hIDO biochemical assay pIC50 (converted)
# Text: Two different assays were employed: 1. a cell-based assay for detecting the effect of test compounds on kynurenine production in two different cancer cell types. This assay utilised cancer cells which expressed either TDO or IDO and as such was used as a means of testing compound activity at these two enzymes in a cell-based context. 2. a TDO and IDO biochemical coupled assay which utilised recombinantly produced and purified TDO and IDO enzymes in combination with the enzyme formamidase. This coupled enzyme system allowed conversion of N-formylkynurenine produced by TDO or IDO activity to kynurenine which was then quantified by fluorescence following addition of Erhlich's Reagent The protocols for these are set out below.
# [3] = molecular target: T1, TDO; experiment: A172 kynurenine cell-based assay; set-up: This assay utilised cancer cells which expressed either TDO or IDO; endogenous in cells; host or cells: A172 (human glioblastoma); details: A172 human glioblastoma cells, 48 hours, 500 μM L-tryptophan; read-out: A172 Kynurenine cell based assay pIC50 (converted)
# Procedure, shortened: (§1)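 First, A172 or SKOV3 cells were seeded in phenol red-free RPMI, 10% FCS, 2 mM L-glutamine, 500 μM L-tryptophan; SKOV3 received 500 ng/ml IFN-γ for IDO induction. Next came compound exposure, 48 hours, 37° C. Finally, cells were spun out, supernatant treated with Erhlich's reagent, absorbance read at 490 nm.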
# [4] = molecular target: T2, IDO; experiment: SKOV3 kynurenine cell-based assay (IDO induced by IFN-γ); set-up: IDO expression was induced in the SKOV3 cells by the addition of 500 ng/ml IFN-γ; endogenous in cells; host or cells: SKOV3 (human ovarian adenocarcinoma), induced with IFN-γ; details: SKOV3 human ovarian adenocarcinoma cells, 500 ng/ml IFN-γ, 48 hours, 500 μM L-tryptophan; read-out: SKOV3 Kynurenine cell based assay pIC50 (converted)
# Procedure, shortened: as §1
# T2 sequence (P14902 whole entry): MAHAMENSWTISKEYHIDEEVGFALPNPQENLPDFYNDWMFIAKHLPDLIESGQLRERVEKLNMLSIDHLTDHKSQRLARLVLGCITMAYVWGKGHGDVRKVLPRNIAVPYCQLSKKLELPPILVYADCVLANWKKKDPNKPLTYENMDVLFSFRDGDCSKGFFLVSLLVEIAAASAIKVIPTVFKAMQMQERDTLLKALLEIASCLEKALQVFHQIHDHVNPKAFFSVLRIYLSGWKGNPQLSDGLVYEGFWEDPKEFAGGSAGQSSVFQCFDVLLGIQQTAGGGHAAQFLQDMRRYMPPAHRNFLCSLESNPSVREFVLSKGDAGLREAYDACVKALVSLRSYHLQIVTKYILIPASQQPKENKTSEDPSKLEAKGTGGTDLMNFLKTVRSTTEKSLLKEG
# T1 sequence (P48775 whole entry): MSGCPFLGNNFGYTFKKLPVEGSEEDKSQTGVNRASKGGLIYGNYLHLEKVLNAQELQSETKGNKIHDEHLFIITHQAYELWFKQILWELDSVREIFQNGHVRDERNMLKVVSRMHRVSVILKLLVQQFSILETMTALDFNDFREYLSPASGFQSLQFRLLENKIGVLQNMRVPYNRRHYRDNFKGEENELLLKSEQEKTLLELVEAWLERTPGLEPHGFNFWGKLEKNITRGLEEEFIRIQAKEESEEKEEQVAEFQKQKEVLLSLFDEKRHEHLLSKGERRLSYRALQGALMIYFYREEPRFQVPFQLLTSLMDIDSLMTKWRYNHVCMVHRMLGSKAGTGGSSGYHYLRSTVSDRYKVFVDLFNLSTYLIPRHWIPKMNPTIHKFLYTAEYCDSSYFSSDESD
Structure (SMILES),IC50 [1],IC50 [2],IC50 [3],IC50 [4]
c1ccc(Nc2cccc3[nH]ncc23)cc1 [Compound 36],< 3.16 µM,> 100 µM,3.24 to 31.6 µM,> 100 µM
Cn1ncc2cccc(N3CCN(S(C)(=O)=O)CC3)c21 [Compound 37],32.4 to 100 µM,32.4 to 100 µM,,
CC(=O)N1CCN(c2cccc3cnn(C)c23)CC1 [Compound 38],32.4 to 100 µM,32.4 to 100 µM,,
CS(=O)(=O)N1CCN(c2cc(F)cc3[nH]ncc23)CC1 [Compound 44],< 3.16 µM,> 100 µM,,
CC(C)CNC(=O)c1cc(Cl)cc2[nH]ncc12 [Compound 238],,> 100 µM,3.24 to 31.6 µM,32.4 to 100 µM
CN(c1ccc(-c2cc(Cl)cc3[nH]ncc23)cc1)S(C)(=O)=O [Compound 239],,32.4 to 100 µM,< 3.16 µM,3.24 to 31.6 µM
COC(=O)c1ccc(-c2cc(Cl)cc3[nH]ncc23)cc1 [Compound 240],,> 100 µM,< 3.16 µM,3.24 to 31.6 µM
CNc1ccc(-c2cc(Cl)cc3[nH]ncc23)cn1 [Compound 241],,> 100 µM,3.24 to 31.6 µM,3.24 to 31.6 µM
CN(C1CCCN(c2cc(Cl)cc3[nH]ncc23)C1)S(C)(=O)=O (stereo not shown) [Compound 242],,> 100 µM,3.24 to 31.6 µM,32.4 to 100 µM
CN(C1CCN(c2cc(Cl)cc3[nH]ncc23)C1)S(C)(=O)=O (stereo not shown) [Compound 243],,32.4 to 100 µM,< 3.16 µM,3.24 to 31.6 µM
CC(=O)N1CCN(c2cc(OC(F)(F)F)cc3[nH]ncc23)CC1 [Compound 244],,> 100 µM,32.4 to 100 µM,32.4 to 100 µM
CN1C(=O)CCC12CCN(c1cc(Cl)cc3[nH]ncc13)CC2 [Compound 245],,3.24 to 31.6 µM,< 3.16 µM,3.24 to 31.6 µM
CC(=O)N(C)c1ccc(-c2cc(Cl)cc3[nH]ncc23)cc1 [Compound 248],,3.24 to 31.6 µM,< 3.16 µM,3.24 to 31.6 µM
O=C(O)c1ccc(-c2cc(Cl)cc3[nH]ncc23)cc1 [Compound 253],,> 100 µM,< 3.16 µM,> 100 µM
Cc1cc(-c2cc(Cl)cc3[nH]ncc23)ccc1S(C)(=O)=O [Compound 254],,32.4 to 100 µM,< 3.16 µM,3.24 to 31.6 µM
O=C(NCC1CCCCC1)c1cc(Cl)cc2[nH]ncc12 [Compound 258],,> 100 µM,> 100 µM,3.24 to 31.6 µM
CCNC(=O)c1cc(Cl)cc2[nH]ncc12 [Compound 261],,> 100 µM,32.4 to 100 µM,> 100 µM
CC(C)COc1cccc2[nH]ncc12 [Compound 262],,> 100 µM,> 100 µM,3.24 to 31.6 µM
CN(C)C(=O)C1CCN(c2cc(Cl)cc3[nH]ncc23)C1 (stereo not shown) [Compound 263],,3.24 to 31.6 µM,3.24 to 31.6 µM,3.24 to 31.6 µM
CC(=O)NCC1CCN(c2cc(Cl)cc3[nH]ncc23)CC1 [Compound 270],,3.24 to 31.6 µM,< 3.16 µM,3.24 to 31.6 µM
O=C(c1cc(Cl)cc2[nH]ncc12)N1CCCCC1 [Compound 274],,> 100 µM,3.24 to 31.6 µM,32.4 to 100 µM
CC(=O)N1CCC(c2cc(OC(F)(F)F)cc3[nH]ncc23)CC1 [Compound 275],,> 100 µM,32.4 to 100 µM,32.4 to 100 µM
CC(=O)NCc1ccc(-c2cc(Cl)cc3[nH]ncc23)cc1 [Compound 276],,> 100 µM,< 3.16 µM,3.24 to 31.6 µM
CS(=O)(=O)NCc1ccc(-c2cc(Cl)cc3[nH]ncc23)cc1 [Compound 292],,> 100 µM,< 3.16 µM,3.24 to 31.6 µM
OC(c1cc(Cl)cc2[nH]ncc12)C1CCCCC1 (stereo not shown) [Compound 293],,> 100 µM,< 3.16 µM,32.4 to 100 µM
COc1cc(-c2cc(Cl)cc3[nH]ncc23)ccc1S(C)(=O)=O [Compound 296],,> 100 µM,3.24 to 31.6 µM,3.24 to 31.6 µM
O=C1NC2(CCN(c3cc(Cl)cc4[nH]ncc34)CC2)C(=O)N1c1ccccc1 [Compound 456],< 3.16 µM,< 3.16 µM,< 3.16 µM,
